The nature of series [1]: Reverse pH gradient drug encapsulation efficiency in liposomes. The format is physicochemical. The settings on record: for drug encapsulation: reverse pH gradient technology, FIG. 10. The protocol:
The dried lipid film was hydrated with a buffer containing either ammonium phosphate, ammonium sulfate, sodium phosphate, or sodium sulfate (300 mM, pH 7.4) and vortexed for 1 minute to remove any adhering lipid film. Sonication in a bath sonicator (ULTRAsonik 28X) for 1 minute at room temperature produced multilamellar vesicles (MLV). MLVs were then sonicated with a Ti-probe (Branson 450 sonifier) for 2 minutes to produce small unilamellar vesicles (SUV), indicated by the formation of a translucent solution. Extrusion through a 100 nm pore size polycarbonate filter (Whatman) was the final stage of a stepwise series of extrusions to reduce SUV size.
The prepared liposomes with internal buffer at pH 3 or 7.4 were passed through a Sephadex G-50 column equilibrated with HEPES buffered saline (HBS; 20 mM HEPES, 150 mM NaCl, pH 7.4) to exchange the external buffer. […] The solution was heated at 50° C. for 20 minutes, left to stand 4 hours at room temperature, and then applied to a Sephadex G-50 column and eluted with MilliQ water.

Series [2] is described as follows: Acute toxicity of free staurosporine at high dose. The format is in vivo. The settings on record: 5 mg/Kg. The source says:
Future, more comprehensive studies will use even lower doses of staurosporine alone, and in combination with other agents.

The conditions of series [3]: 0.8 mg/Kg injected as free drug, 'would very likely be' (Gurley et al.); cited from earlier work.
In the next series the test system is U87 cells. The series is described as follows: In vivo anti-tumor activity, very large U87 flank tumors (180-200 mm^3). The settings on record: treatment over two weeks.

SMILES strings stand for the structures.

Take `COc1cc2ncnc(Nc3ccc(F)c(Cl)c3)c2cc1OCCCN1CCOCC1` [Gefitinib, N-(3-chloro-4-fluoro-phenyl)-7-methoxy-6-(3-morpholin-4-ylpropoxy)quinazolin-4-amine]: the drug encapsulation result in series [1] is “good efficacy”.
The same measure, in the same setting: as for `O=c1cc(N2CCOCC2)oc2c(-c3ccccc3)cccc12` [LY29004], the entry is “good efficacy”.
Regarding `CN[C@@H]1C[C@H]2O[C@@](C)([C@@H]1OC)n1c3ccccc3c3c4c(c5c6ccccc6n2c5c31)C(=O)NC4` [staurosporine, (9S,10R,11R,13R)-2,3,10,11,12,13-Hexahydro-10-methoxy-9-methyl-11-(methylamino)-9,13-epoxy-1H,9H-diindolo[1,2,3-gh:3′,2′,1′-1m]pyrrolo[3,4-j][1,7]benzodiazonin-1-one], the “liposomal loading capacity, peak value” in series [1] (drug to lipid ratio 0.09 (mole/mole)) is recorded as 70%. For the same compound, the “increase of encapsulation when a gradient existed” value in series [1] (internal buffer pH 7.4 versus pH 3, external buffer pH 3) worked out at 14 fold. For the same compound, the encapsulation rate result in series [1] (internal pH 5, external pH 7.4) was “very low”. The acute toxicity result in series [2] is reported as “acutely lethal”. For the same compound, the “fraction cleared after one circulatory pass” value in series [3] is 99%. In addition, the body weight entry with U87 cells was “body weight did decline”. Moreover, the tumor growth entry in the series on U87 cells (relative to PBS (p<0.004)) was “no demonstrable effect”.

The record behind these values is patent US20140356416A1, “LIPOSOMAL DRUG ENCAPSULATION” (priority 2011, published 2014).
